In patent publication US7015306B2 (BioSynthema, Inc., priority 1999, dated 2006):
Where a SMILES comes first, the peptide text is derived from it. [ ]: non-standard residue; d: D form. The star is where a group is joined. ξ: configuration not given here. DTPA = O=C(O)CN(CCN(CC(=O)O)CC(=O)O)CCN(CC(=O)O)CC(=O)*; ξGly(4-Pip(1-amidino)) = N=C(N)N1CCC(C(N)C(=O)O)CC1; ξPhe(4-guanidino) = N=C(N)Nc1ccc(CC(N)C(=O)O)cc1; ξGly(piperidin-4-yl) = NC(C(=O)O)C1CCNCC1; mTyr = N[C@@H](Cc1cccc(O)c1)C(=O)O; tBuAla = CC(C)(C)C[C@H](N)C(=O)O; Cha = N[C@@H](CC1CCCCC1)C(=O)O; Tle = CC(C)(C)[C@H](N)C(=O)O

Assays:
[1] = biological target: T1, HT 29 colon adenocarcinoma cells (Homo sapiens, UniProt P30989); details: Ψ(CH2NH) pseudo-peptide analogs; cited from earlier work
T1 construct: host or cells: HT 29 colon adenocarcinoma cells (endogenous receptors)

[2] = In vitro serum stability assay (HPLC) of In-111 labeled peptide; type: in vitro ADME, human; details: human serum, 37EC, 4 hours
Experimental: (§1) All reagents were purchased from Sigma unless otherwise noted. The peptide and ^111InCl3 in 0.05 N HCl were incubated in a sodium acetate/ascorbic acid buffer for 30 minutes at room temperature. The reaction was diluted with 5% ethanol/95% PBS before using in subsequent in vitro assays.
(§2) Human serum was purchased from Sigma (H 1388). The labeled peptide was incubated in either human serum or rat urine at 37EC for the specified amount of time. An aliquot was filtered through a 0.45 μm syringe filter prior to HPLC injection.

[3] = biological target: neurotensin receptors (Homo sapiens, UniProt P30989); test: Competitive binding assay on frozen tissue sections of receptor-positive human tumors vs radioiodinated native neurotensin; details: Table 3
From the text: Frozen tissue sections from receptor-positive human tumors were used in a competitive binding assay.

[4] = In vitro urine stability assay (HPLC) of In-111 labeled peptide; type: in vitro ADME; details: rat urine, 37EC, 4 hours
Experimental: as §1, §2

neurotensin receptors, sequence (P30989 whole entry): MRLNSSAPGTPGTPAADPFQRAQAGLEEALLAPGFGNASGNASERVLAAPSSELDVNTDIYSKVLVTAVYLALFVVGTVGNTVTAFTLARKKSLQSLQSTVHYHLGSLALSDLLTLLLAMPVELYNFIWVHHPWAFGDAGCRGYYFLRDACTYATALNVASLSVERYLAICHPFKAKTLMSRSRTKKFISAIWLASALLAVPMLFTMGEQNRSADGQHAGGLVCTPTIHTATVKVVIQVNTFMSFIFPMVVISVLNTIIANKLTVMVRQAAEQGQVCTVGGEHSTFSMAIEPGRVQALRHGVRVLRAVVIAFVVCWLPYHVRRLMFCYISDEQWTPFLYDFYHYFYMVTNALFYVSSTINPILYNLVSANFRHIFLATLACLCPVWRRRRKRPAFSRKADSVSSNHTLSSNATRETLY
T1 sequence (P30989 whole entry): as above

Molecule | Kd [1] [nM] | % of peptide at 4 hours after incubation at 37EC, Serum [2] [%] | Kd [3] [nM] | % of peptide at 4 hours after incubation at 37EC, Urine [4] [%]
DTPA-Lys^8(Ψ-CH2NH)Arg^9-Pro-Tyr-Ile-Leu-OH ({DTPA}-KRPYIL-OH; also: reduced CH2NH bond between Lys and Arg) [DTPA-Lys^8-Ψ(CH2NH)-Arg^8-NT(8–13)] | 13 |  |  | 
CC[C@H](C)[C@H](NC(=O)[C@H](Cc1ccc(O)cc1)NC(=O)[C@@H]1CCCN1C(=O)C(Cc1ccc(NC(=N)N)cc1)NC(=O)C(Cc1ccc(NC(=N)N)cc1)NC(=O)[C@@H]1CCCN1C(=O)[C@@H](CCCCN)NC(=O)CN(CCN(CCN(CC(=O)O)CC(=O)O)CC(=O)O)CC(=O)O)C(=O)N[C@@H](CC(C)C)C(=O)O (stereo partly drawn) [DTPA-DLys-Pro-(4-Gu)Phe-(4-Gu)Phe-Pro-Tyr-Ile-Leu-OH] ({DTPA}-[dK]P[ξPhe(4-guanidino)][ξPhe(4-guanidino)]PYIL-OH) |  | 25.2 | 175 | 2.3
CC(C)C[C@H](NC(=O)[C@@H](NC(=O)[C@H](Cc1cccc(O)c1)NC(=O)[C@@H]1CCCN1C(=O)[C@H](CCCNC(=N)N)NC(=O)C(NC(=O)[C@@H]1CCCN1C(=O)[C@@H](CCCCN)NC(=O)CN(CCN(CCN(CC(=O)O)CC(=O)O)CC(=O)O)CC(=O)O)C1CCN(C(=N)N)CC1)C(C)(C)C)C(=O)O (stereo partly drawn) [DTPA-DLys-Pro-Gly(PipAm)-Arg-Pro-mTyr-tBuGly-Leu-OH] ({DTPA}-[dK]P[ξGly(4-Pip(1-amidino))]RP[mTyr][Tle]L-OH) |  | 84.4 | 300 | 57.8
CC(C)(C)[C@H](NC(=O)[C@H](Cc1ccc(O)cc1)NC(=O)[C@@H]1CCCN1C(=O)[C@H](CCCNC(=N)N)NC(=O)C(NC(=O)[C@@H]1CCCN1C(=O)[C@H](CCCCN)NC(=O)[C@H](CC(N)=O)NC(=O)[C@H](CCC(=O)O)NC(=O)[C@@H](Cc1ccc(O)cc1)NC(=O)CN(CCN(CCN(CC(=O)O)CC(=O)O)CC(=O)O)CC(=O)O)C1CCN(C(=N)N)CC1)C(=O)N[C@@H](CC1CCCCC1)C(=O)O (stereo partly drawn) [Compound XIV, DTPA-DTyr-Glu-Asn-Lys-Pro-Gly(PipAm)-Arg-Pro-Tyr-tBuGly-Cha-OH] ({DTPA}-[dY]ENKP[ξGly(4-Pip(1-amidino))]RPY[Tle][Cha]-OH) |  | 93.9 | 4.5 | 81.8
CC(C)(C)[C@H](NC(=O)[C@H](Cc1ccc(O)cc1)NC(=O)[C@@H]1CCCN1C(=O)[C@H](CCCNC(=N)N)NC(=O)C(NC(=O)[C@@H]1CCCN1C(=O)[C@@H](CCCCN)NC(=O)CN(CCN(CCN(CC(=O)O)CC(=O)O)CC(=O)O)CC(=O)O)C1CCN(C(=N)N)CC1)C(=O)N[C@@H](CC1CCCCC1)C(=O)O (stereo partly drawn) [DTPA-DLys-Pro-Gly(PipAm)-Arg-Pro-Tyr-tBuGly-Cha-OH] ({DTPA}-[dK]P[ξGly(4-Pip(1-amidino))]RPY[Tle][Cha]-OH) |  | 81.2 | 12 | 65.9
CC(C)(C)C[C@H](NC(=O)[C@@H](NC(=O)[C@H](Cc1ccc(O)cc1)NC(=O)[C@@H]1CCCN1C(=O)[C@H](CCCNC(=N)N)NC(=O)C(NC(=O)[C@@H]1CCCN1C(=O)[C@H](CCCCN)NC(=O)[C@H](CC(N)=O)NC(=O)[C@H](CCC(=O)O)NC(=O)[C@@H](Cc1ccc(O)cc1)NC(=O)CN(CCN(CCN(CC(=O)O)CC(=O)O)CC(=O)O)CC(=O)O)C1CCN(C(=N)N)CC1)C(C)(C)C)C(=O)O (stereo partly drawn) [Compound XV, DTPA-DTyr-Glu-Asn-Lys-Pro-Gly(PipAm)-Arg-Pro-Tyr-tBuGly-tBuAla-OH] ({DTPA}-[dY]ENKP[ξGly(4-Pip(1-amidino))]RPY[Tle][tBuAla]-OH) |  | 98.9 | 3.5 | 89.8
CC(C)C[C@H](NC(=O)[C@@H](NC(=O)[C@H](Cc1ccc(O)cc1)NC(=O)[C@@H]1CCCN1C(=O)C(NC(=O)C(NC(=O)[C@@H]1CCCN1C(=O)[C@@H](CCCCN)NC(=O)CN(CCN(CCN(CC(=O)O)CC(=O)O)CC(=O)O)CC(=O)O)C1CCN(C(=N)N)CC1)C1CCNCC1)C(C)(C)C)C(=O)O (stereo partly drawn) [DTPA-DLys-Pro-Gly(PipAm)-PipGly-Pro-Tyr-tBuGly-Leu-OH] ({DTPA}-[dK]P[ξGly(4-Pip(1-amidino))][ξGly(piperidin-4-yl)]PY[Tle]L-OH) |  | 91.6 | 140 | 79.7
CC(C)(C)C[C@H](NC(=O)[C@@H](NC(=O)[C@H](Cc1ccc(O)cc1)NC(=O)[C@@H]1CCCN1C(=O)[C@H](CCCNC(=N)N)NC(=O)C(NC(=O)[C@@H]1CCCN1C(=O)[C@@H](CCCCN)NC(=O)CN(CCN(CCN(CC(=O)O)CC(=O)O)CC(=O)O)CC(=O)O)C1CCN(C(=N)N)CC1)C(C)(C)C)C(=O)O (stereo partly drawn) [DTPA-DLys-Pro-Gly(PipAm)-Arg-Pro-Tyr-tBuGly-tBuAla-OH] ({DTPA}-[dK]P[ξGly(4-Pip(1-amidino))]RPY[Tle][tBuAla]-OH) |  | 89.2 | 7.3 | 72.3
